Assay results from article PMC5441580, “GPR40 partial agonist MK-2305 lower fasting glucose in the Goto Kakizaki rat via suppression of endogenous glucose production” (PLoS ONE, 2017).
Several values for one entry are separate records, joined by “and”; a condition that tells them apart may be missing. Equal entries are not always repeated.

Key:
GK rats [1] = experiment: OGTT with insulin co-measurement on Day 13 of chronic treatment, parallel set of animals; assay type: in vivo, rat; design: Change in plasma insulin from baseline during OGTT (delta insulin): unit not given here; conditions: for Change in plasma insulin from baseline during OGTT (delta insulin): day 13, individual animals
Experimental: On the day of the study, male GK rats were bled via tail snip, and blood glucose was measured via glucometer (OneTouch Ultra, Lifescan Inc., Milpitas, CA). Fed glucose was measured at 8 A.M. (lights on 7 A.M.– 7 P.M.) and used to select and sort animals into treatment groups (n = 8/ GK group, plus n = 6/WKY control group). Animals were then placed into clean cages, and food was removed. After a 5 hr fast, glucose was measured at time = -60 min, followed by administration of vehicle plus or minus compound via oral gavage (PO) at a dosing volume of 5 ml/kg. Dosages from 0.3–10 mg MK-2305 / kg body weight were tested. Both the GK and WKY control groups received vehicle (0.5% methylcellulose). Blood glucose was measured again (time = 0) immediately prior to a dextrose challenge of 1 g/kg at 10 ml/kg dose volume (Dextrose, Hospira Inc., Lake Forrest IL) and then again at 20, 40, 60, and 120 min after the glucose challenge. Insulin was co-measured to test the glucose-dependent secretory response to MK-2305 delivered acutely PO. To capture insulin secretion during the OGTT, blood was collected at t = -60, 0, 20, 40, 60 min post glucose challenge. […] Values of percent inhibition vs. vehicle for each treatment were generated from the AUC data. Maximally efficacious dose (MED) was defined as the minimum dosage generating a maximum inhibition of glucose excursion achieved with this compound in the OGTT assay.
In a parallel set of animals (n = 30) treated with standard diet or MK-2305 at 30 mg/kg diet, an OGTT with insulin co-measurement was performed on Day 13. On the day of OGTT, n = 10 vehicle animals and n = 10 MK-2305-treated animals were administered 0.5% methylcellulose PO at a dosing volume of 5 ml/kg. For an acute comparison, n = 10 vehicle animals were administered MK-2305 at 30 mg/kg PO. The procedure for an acute OGTT was identical to that described above.

[2] = system: pancreatic islets of Langerhans from GPR40−/− mice; experiment: glucose stimulated insulin secretion (GSIS), isolated GPR40 KO islets; assay type: cell-based, mouse; conditions: 10 uM compound, 60 min, individual wells
Experimental: Pancreatic islets of Langerhans were isolated from wild-type and GPR40−/− mice (littermates) by collagenase digestion and discontinuous Ficoll gradient separation. […] Insulin secretion was determined by a 1 hr static incubation in Krebs-Ringer bicarbonate (KRB) buffer in a 96-well format as previously described. Briefly, islets were first preincubated in KRB medium with 2 mmol/l glucose for 30 min and were then transferred to a 96-well plate (three islets/well) and incubated with 200 μl of the KRB medium with 2 or 15 mmol/l glucose in the presence or absence of testing compounds for 60 min. The buffer was removed from the wells at the end of the incubation and assayed for insulin levels using the Ultrasensitive Rat Insulin ELISA kit (ALPCO, Salem, NH). All insulin secretion data were normalized by total islet numbers (ex: three islets/well), so the unit is secreted insulin (ng/ml) per islet.

GK rats [3] = experiment: endogenous glucose production in vivo, 2H/13C dual tracer, chronic treatment, GK rats; design: species or system rat; conditions: 10 mg/kg, individual animals
Experimental: To evaluate whether MK-2305 treatment produced an effect on EGP in vivo, a ^2H/^13C dual tracer approach was used to calculate EGP and its contributing sources. On the day of the study, GK rats were bled via tail snip, and blood glucose was measured via glucometer. Ambient glucose was measured at 8 A.M. and used to sort animals into treatment groups (n = 8 per group). 0.9% NaCl salinated D2O (Sigma-Aldrich, St. Louis, MO) was administered to all animals via IP injection at dose volume of 20 ml/kg. Animals were then placed in clean cages and food was removed. After a 5 hour fast, blood glucose was measured and animals were dosed PO with MK-2305 at 10 mg/kg (5 ml/kg) or vehicle (0.5% methylcellulose) immediately followed by 50 mg/kg [U-^13C] glucose (Sigma-Aldrich) IP at 5 ml/kg. Blood was collected via tail snip at time points from 60–150 min post treatment to measure blood glucose as well as endogenous (^12C-glucose) and exogenous (^13C-glucose) via GCMS. Following the last tail blood collection, rats were anesthetized with isoflurane and cardiac blood was collected into K2EDTA tubes (Becton, Dickinson and Co., Franklin Lakes, NJ).
The serially collected blood samples were analyzed for ^13C-glucose enrichment using GC-MS analysis. The % ^13C glucose enrichments were then combined with the total glucose readings to calculate the concentration of ^13C-glucose, and these values were modeled with a two-compartment model of whole body glucose metabolism to calculate the average EGP for the period from 0–150 minutes.
Terminal blood samples were analyzed for relative ^2H enrichment in plasma glucose using the monoacetone glucose method. Briefly, samples were extracted with 70% perchloric acid and centrifuged at 25,000 rcf for 10 min at 4°C. The supernatant was collected and the pH was adjusted to 6–8 using KOH. The samples were then lyophilized overnight. To convert plasma glucose to monoacetone glucose (MAG), acetone and concentrated sulfuric acid were added to the lyophilized samples and stirred for 4 hours at room temperature. Water was then added and the pH adjusted to 2.0 with 3M Na2CO3. Samples were stirred moderately for 18 hours at room temperature, the pH was adjusted to 7 with 3M Na2CO3, and the samples were completely dried by speed vacuum concentration. The resulting MAG samples were then extracted in hot ethyl acetate, dried overnight under a stream of N2 gas, purified using Discovery DSC-18 SPE columns (6 ml, 1 g bed weight), and freeze dried. […] The ^2H NMR spectra of the MAG samples were then analyzed using in–house developed Matlab (The Mathworks Inc, Natick, MA) to model the NMR peaks with a Lorentzian line shape, and the results were used to calculate integrals for each of the seven NMR resonances in the MAG spectrum. […]

Structure (SMILES): O=C1NC(=O)C(C2CCOc3cc(Oc4ccc(C(F)(F)F)cc4Cl)ccc32)S1 (stereo not drawn) [MK-2305]
- Change in plasma insulin from baseline during OGTT (delta insulin) (GK rats [1]; Acute, 30 mpk, Time 0, 30 mg/kg): 0.309 and 1.604 and 0.324 and 0.21 and 0.156 and 0.86 and 1.776 and 0.805 and -0.061 and 0.012
- Change in plasma insulin from baseline during OGTT (delta insulin) (GK rats [1]; Acute, 30 mpk, Time 20, 30 mg/kg): 1.499 and 1.114 and 1.989 and 2.273 and 1.824 and -0.14 and 3.286 and 1.17 and 0.172 and 0.765
- Change in plasma insulin from baseline during OGTT (delta insulin) (GK rats [1]; Acute, 30 mpk, Time 60, 30 mg/kg): 0.099 and 0.177 and 0.004 and -0.004 and -0.413 and -0.187 and -0.251 and 0.259 and -0.133 and 0.416
- Change in plasma insulin from baseline during OGTT (delta insulin) (GK rats [1]; Acute, 30 mpk, Time -60): 0
- Change in plasma insulin from baseline during OGTT (delta insulin) (GK rats [1]; Chronic, 30 mkd, Time 0): 0.06 and -0.177 and -0.627 and -0.109 and -0.564 and -0.273 and 0.845 and 0.077 and 0.103 and 0.198
- Change in plasma insulin from baseline during OGTT (delta insulin) (GK rats [1]; Chronic, 30 mkd, Time 20): 0.473 and 0.233 and 0.417 and 0.389 and 0.164 and 0.072 and 0 and 0.34 and 0.387 and 0.196
- Change in plasma insulin from baseline during OGTT (delta insulin) (GK rats [1]; Chronic, 30 mkd, Time 60): -0.534 and -0.189 and -0.192 and 0.192 and -0.625 and -0.523 and -0.322 and -0.003 and -0.166 and -0.044
- Change in plasma insulin from baseline during OGTT (delta insulin) (GK rats [1]; Chronic, 30 mkd, Time -60): 0
- effect on plasma insulin after a glucose challenge (GK rats [1]; OGTT Day 13, 30 mg/kg acutely PO and chronically in diet, vs. vehicle): increased plasma insulin
- secreted insulin per islet ([2]; 2mM glucose): 0.3958 ng/ml per islet and 0.3056 ng/ml per islet and 0.5799 ng/ml per islet and 0.6404 ng/ml per islet and 0.5029 ng/ml per islet and 1.032 ng/ml per islet and 0.612 ng/ml per islet and 0.7615 ng/ml per islet
- secreted insulin per islet ([2]; 15 mM Glucose): 2.615 ng/ml per islet and 3.66 ng/ml per islet and 2.83 ng/ml per islet and 4.29 ng/ml per islet and 3.64 ng/ml per islet and 2.75 ng/ml per islet and 4.57 ng/ml per islet and 4.28 ng/ml per islet
- Glucose Production, GNG Glycerol (GK rats [3]): 9.192 µmol/kg/min and 6.083 µmol/kg/min and 7.998 µmol/kg/min and 7.217 µmol/kg/min and 7.842 µmol/kg/min and 8.659 µmol/kg/min and 3.467 µmol/kg/min and 8.678 µmol/kg/min
- Glucose Production, GNG TCA (GK rats [3]): 36.7882 µmol/kg/min and 38.5819 µmol/kg/min and 33.1225 µmol/kg/min and 31.7162 µmol/kg/min and 37.3311 µmol/kg/min and 31.203 µmol/kg/min and 37.9138 µmol/kg/min and 30.2175 µmol/kg/min
- Glucose Production, GNG Total (GK rats [3]): 45.9798 µmol/kg/min and 44.6651 µmol/kg/min and 41.1202 µmol/kg/min and 38.9333 µmol/kg/min and 45.1729 µmol/kg/min and 39.8625 µmol/kg/min and 41.3808 µmol/kg/min and 38.8959 µmol/kg/min
- Glucose Production, Glycogenolysis (GK rats [3]): 21.2266 µmol/kg/min and 17.3215 µmol/kg/min and 19.9927 µmol/kg/min and 20.4645 µmol/kg/min and 22.2628 µmol/kg/min and 19.9186 µmol/kg/min and 23.4568 µmol/kg/min and 19.0453 µmol/kg/min
